Experimental data taken from patent US20260000685A1, “PHARMACEUTICAL COMPOSITION FOR PREVENTING OR TREATING DEGENERATIVE BRAIN DISEASES, COMPRISING CANNABINOIDS AS ACTIVE INGREDIENT, AND USES THEREOF” (NEOCANNBIO CO., LTD., priority 2022, published 2026).

Assays:
primary neuronal cells = assay: Inhibition of Aβ1-42-induced neuron apoptosis (MTS cell viability); format: cell-based, ICR mice; details: for cell survival rate level: different concentrations with Aβ1-42 (5 μM), 24 hours, compared to control treated with Aβ1-42 alone, FIG. 2; for neuron apoptosis inhibition efficacy: same concentration of CBDA, CBD, THCA and THC, Memantine as positive control, FIG. 3
Protocol: Specifically, primary neuronal cells derived from ICR mice were seeded in 96-wells at 5×10^5 cells per well and cultured for 6 days. Afterwards, the six compounds of Example 1 above were treated at different concentrations and Aβ1-42 (5 μM) was treated to induce neuron apoptosis, and the cells were treated together for 24 hours. Afterwards, a MTS solution was added to the medium and incubated for 2 hours. Cytotoxicity (cell viability) was measured using a microplate spectrophotometer (Bio-Tek Power Wave XS, Winooski, VT, USA), and absorbance was measured at 490 nm.
Next, the neuron apoptosis inhibition efficacy for the same concentration of CBDA, CBD, THCA and THC was evaluated using the same method as above. Memantine, known as an Alzheimer's treatment, was used as a positive control group.

[1] = test system: APP (Amyloid Precursor Protein); assay: Western blotting of APP expression in Aβ1-42-treated primary neuronal cells; format: cell-based, ICR mice; details: CBDA (6 μM) or THCA (5 μM), with Aβ1-42 (5 μM), 24 hours; FIG. 6
Protocol: Specifically, primary neuronal cells derived from ICR mice were cultured for 6 days, and then treated with CBDA, THCA, THC, or CBN compounds while treating with Aβ1-42 (5 μM), and treated together for 24 hours. Next, Western blotting was conducted to confirm the expression levels of APP (Amyloid Precursor Protein), polymeric Aβ, and oligomeric AB in the cells.
(§1) To conduct Western blotting, tissues were homogenized in radioimmunoprecipitation assay buffer (Cell Signaling) to acquire tissue lysates. Tissue protein concentrations were determined using the Bio-Rad protein assay (Bio-Rad, Hercules, CA, USA), and Western blot analysis was conducted using 80-120 μg of protein. Next, the Western blotting samples prepared using the proteins were separated using 12% SDS-PAGE and transferred to a polyvinylidene fluoride membrane (PVDF) (Merck Millipore, Burlington, MA, USA; 0.4 μm). The PVDF was blocked with tris-buffered saline including 5% bovine serum albumin and Tween-20, and incubated with primary antibodies overnight at 4° C. After primary antibody incubation, the samples were incubated with HRP-conjugated secondary antibody (Sigma; 1:5000) for 1 hour at room temperature, and immunodetection was conducted using an enhanced chemiluminescence detection kit (GE Healthcare, Chicago, IL, USA).

[2] = test system: phosphorylated tau (p-Tau); assay: Western blotting of Tau/p-Tau in Aβ1-42-treated primary neuronal cells; format: cell-based, ICR mice; details: with Aβ1-42 (5 μM), 24 hours; compared to Aβ1-42 alone; FIG. 7
Protocol: as §1
Specifically, primary neuronal cells derived from ICR mice were cultured for 6 days, and then treated with CBDA, THCA, THC, or CBN compounds while treating with Aβ1-42 (5 μM), and treated together for 24 hours. Next, to confirm the expression levels of Tau and phosphorylated Tau (p-Tau) in the cells, Western blotting was conducted using the method disclosed in Example 4 above.

[3] = test system: primary cortical neuron cells; assay: Intracellular calcium concentration in neuronal cells (fluo-4 AM fluorescence imaging); format: cell-based; details: CBDA (6.25 μM), THCA (12.5 μM), THC (12.5 μM) with Aβ1-42 (5 μM), 24 hours; compared to Aβ1-42 alone; FIG. 8 and 9
Protocol: Specifically, primary cortical neuron cells were seeded in 96-wells at 5×10^5 cells per well and cultured for 6 days. […] Next, to measure the concentration of calcium ions in neuronal cells by detecting Ca^2+ using fluorescence imaging, the cells were washed with PBS and treated with 10 μM Ca^2+ indicator fluo-4 AM (Thermo) for […]. The stained sections were washed with PBS, covered with Prolong Gold Antifide Reagent (Invitrogen, Carlsbad, CA, USA) including DAPI nuclear stain, and observed using a microscope (Carl Zeiss, Oberkochen, Germany). Fluo-4 AM fluorescence signal intensity was measured using the Image J analysis program (National Institute of Health, Bethesda, […], USA).

[4] = test system: Alzheimer's animal model (Aβ1-42 treated mice); assay: Novel object recognition test (NOR) in Aβ1-42 Alzheimer's animal model; format: in vivo, ICR mice; details: compared to mice treated with only Aβ1-42; FIG. 14
Protocol: (§2) Female ICR mice (8 weeks old) used in the experiment were purchased from Coretech (Pyeongtaek, Korea). Mice were housed in the animal care facility of the Korea Institute of Science and Technology (KIST) (temperature 22±2° C., humidity 40-60%, 12-hour light/dark cycle). Mice were housed in an environment with free access to food and water. All animal experiments were conducted in accordance with the protocol approval of the Animal Ethics Committee of our institution.
(§3) Next, to create an animal model, mice were randomly selected and divided into four groups as follows: PBS treated group (PBS+PBS), Aβ1-42 treated group (Aβ1-42 +PBS) (Alzheimer's animal model), CBDA treated group (Δβ1-42+CBDA (6.25 µM, 3 μL/mouse)), and THCA treated group (Δβ1-42+THCA (12.5 μM, 3 μL/mouse)).
(§4) After anesthetizing the isolated mice by intraperitoneal (i.p.) injection of avertin (250 mg/kg), the mice were fixed in a stereotaxic apparatus, and CBDA, THCA, Aβ1-42, or PBS (3 μl/15 min/mouse) were gradually delivered to the hippocampus using a Hamilton syringe (coordinates of bregma: mediolateral (ML)=1.30 mm, anteroposterior (AP)=−2.00 mm, dorsoventral=−2.20 mm).
(§5) First, the Novel Object Recognition Test (NOR) was conducted to examine a natural tendency of the experimental mice to explore novel stimuli. For this purpose, during the habituation session conducted 2 days before the test, the mice were allowed to explore the test environment consisting of an opaque custom-made Plexiglas box (35 cm×45 cm×25 cm) for 10 minutes. The sample object phase was conducted 24 hours later. Two identical white circular cylinders (sample objects) were placed on opposite edges of the test environment, and mice were given access to the objects for 10 minutes. After 4 hours (novel object stage), one of the sample objects in the test environment was replaced with a similarly sized novel object (colored miniature animal), and the mouse was allowed to contact this novel arrangement for 5 minutes. The time when the mouse's nose stayed <1 cm away from the object was considered the time the mouse explored the object, excluding the time when the mouse stood on the object. The identification rate was calculated as the time spent exploring the novel object relative to the time spent exploring the two objects.

[5] = test system: Alzheimer's animal model (Aβ1-42 treated mice); assay: Object location test (OLT) in Aβ1-42 Alzheimer's animal model; format: in vivo, ICR mice; details: compared to mice treated with only Aβ1-42; FIG. 14
Protocol: as §2, §3, §4, §5
Additionally, for the object location test (OLT), it was conducted in the same manner as the novel object recognition test described above, but on the last day of the object location test, one of the two sample objects was moved to a different location and the test was conducted.

[6] = test system: p-CREB (CAMP Response Element-Binding Protein); assay: Western blot of p-CREB in hippocampal tissues of animal model; format: in vivo, ICR mice; details: day 19; compared to Aβ1-42 treated group; FIG. 17
Protocol: as §1
Specifically, hippocampal tissues were acquired on day 19 from the animal models created in Example 7 above (PBS treated group, Aβ1-42 treated group, CBDA treated group, and THCA treated group), and Western blot analysis was conducted on the hippocampal tissues to evaluate the expression levels of BDNF, p-CREB, and p-TrKB.

SMILES	cell survival rate level (primary neuronal cells)	neuron apoptosis inhibition efficacy (primary neuronal cells)	expression level of APP [1]	expression level of p-Tau [2]	phosphorylation level of p-Tau [2]	intracellular calcium ion concentration [3]	identification rate (NOR) [4]	time investigating the novel object [4]	identification rate (OLT) [5]	time investigating the object moved to a different location [5]	expression level of p-CREB in hippocampal tissues [6]
CCCCCc1cc2c(c(O)c1C(=O)O)[C@@H]1C=C(C)CC[C@H]1C(C)(C)O2 [THCA, (6aR, 10aR)-1-Hydroxy-6,6,9-trimethyl-3-pentyl-6a,7,8,10a-tetrahydro-6H-benzo[c]chromene-2-carboxylic acid]	significantly increased	better neuron apoptosis inhibition efficacy	significantly reduced	significantly reduced	significantly reduced	significantly reduced	significantly increased	spent more time	significantly increased	spent more time	significantly increased
C=C(C)[C@@H]1CCC(C)=C[C@H]1c1c(O)cc(CCCCC)c(C(=O)O)c1O [CBDA]	significantly increased	better neuron apoptosis inhibition efficacy	significantly reduced	significantly reduced	significantly reduced	significantly reduced	significantly increased	spent more time	significantly increased	spent more time	significantly increased
